In patent US12612409B2, “Pyrrolopyrimidines as CFTR potentiators” (Cystic Fibrosis Foundation, priority 2016, dated 2026) one finds EC50 data, which are given here for 19 compounds.

Assay [1] deals with T1, CFTR in F508del/F508del primary CF hBE cells (Homo sapiens, UniProt P13569, DEL508-508).
T1 construct: Primary cystic fibrosis human bronchial epithelial (CF hBE) cells were expanded and cultured; endogenous in cells; host or cells: primary CF human bronchial epithelial cells, genotype F508del/F508del
T1 sequence (P13569 with tags, fused parts or gaps DEL508-508): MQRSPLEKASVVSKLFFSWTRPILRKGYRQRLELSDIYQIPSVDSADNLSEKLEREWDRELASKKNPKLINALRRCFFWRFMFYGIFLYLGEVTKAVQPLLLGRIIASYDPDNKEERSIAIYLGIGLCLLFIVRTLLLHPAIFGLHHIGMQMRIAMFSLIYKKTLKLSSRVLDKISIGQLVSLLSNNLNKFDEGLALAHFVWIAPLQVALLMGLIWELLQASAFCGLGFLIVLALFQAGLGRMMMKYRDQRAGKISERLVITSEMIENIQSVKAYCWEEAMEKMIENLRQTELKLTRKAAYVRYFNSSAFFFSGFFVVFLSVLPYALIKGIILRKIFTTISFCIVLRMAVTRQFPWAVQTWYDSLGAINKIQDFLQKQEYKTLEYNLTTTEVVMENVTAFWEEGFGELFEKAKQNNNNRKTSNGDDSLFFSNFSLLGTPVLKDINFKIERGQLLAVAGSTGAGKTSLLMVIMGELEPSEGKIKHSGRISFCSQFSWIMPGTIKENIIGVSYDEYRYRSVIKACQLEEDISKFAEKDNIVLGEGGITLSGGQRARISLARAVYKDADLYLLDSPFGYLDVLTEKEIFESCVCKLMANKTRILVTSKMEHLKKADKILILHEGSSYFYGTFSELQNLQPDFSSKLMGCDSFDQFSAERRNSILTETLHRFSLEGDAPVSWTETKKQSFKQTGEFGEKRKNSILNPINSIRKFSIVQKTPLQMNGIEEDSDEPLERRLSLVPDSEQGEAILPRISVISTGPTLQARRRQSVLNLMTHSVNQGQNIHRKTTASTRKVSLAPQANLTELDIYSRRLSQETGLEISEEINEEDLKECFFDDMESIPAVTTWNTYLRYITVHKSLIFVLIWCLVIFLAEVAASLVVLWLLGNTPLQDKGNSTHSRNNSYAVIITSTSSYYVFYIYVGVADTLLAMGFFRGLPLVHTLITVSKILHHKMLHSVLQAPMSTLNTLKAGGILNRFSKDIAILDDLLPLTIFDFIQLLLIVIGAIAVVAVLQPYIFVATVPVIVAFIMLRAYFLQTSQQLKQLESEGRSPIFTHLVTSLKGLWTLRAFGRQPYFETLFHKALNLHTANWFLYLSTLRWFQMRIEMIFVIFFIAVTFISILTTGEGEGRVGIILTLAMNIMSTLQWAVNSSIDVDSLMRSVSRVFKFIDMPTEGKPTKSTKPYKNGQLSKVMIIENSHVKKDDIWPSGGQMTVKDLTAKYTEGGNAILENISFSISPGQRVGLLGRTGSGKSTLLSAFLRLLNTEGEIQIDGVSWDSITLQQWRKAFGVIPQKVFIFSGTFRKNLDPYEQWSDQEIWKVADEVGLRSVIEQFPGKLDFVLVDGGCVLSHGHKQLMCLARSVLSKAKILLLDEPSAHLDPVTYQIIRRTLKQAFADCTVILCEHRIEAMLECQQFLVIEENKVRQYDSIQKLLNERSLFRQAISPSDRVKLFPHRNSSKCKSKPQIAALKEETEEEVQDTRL
The experiment in a line: Ussing chamber electrophysiology assay of CFTR potentiation in F508del/F508del CF bronchial epithelial cells (27° C.). In kind it is cell-based. The text has this:
• SHELXTL, Version 5.1, Bruker AXS, 1997. • PLATON, A. L. Spek, J. Appl. Cryst. 2003, 36, 7-13. • MERCURY, C. F. Macrae, P. R. Edington, P. McCabe, E. Pidcock, G. P. Shields, R. Taylor, M. Towler and J. van de Streek, J. Appl. Cryst. 39, 453-457, 2006. • OLEX2, Dolomanov, O. V.; Bourhis, L. J.; Gildea, R. J.; Howard, J. A. K.; Puschmann, H., (2009). J. Appl. Cryst., 42, 339-341. • R. W. W. Hooft et al. J. Appl. Cryst. (2008). 41. 96-103. • H. D. Flack, Acta Cryst. 1983, A39, 867-881. Using Chamber Electrophysiology Assay of CFTR Potentiation in CF Bronchial Epithelial Cells
Primary cystic fibrosis human bronchial epithelial (CF hBE) cells were expanded and cultured according to published methods (Neuberger et al., Ch. 4 of Cystic Fibrosis, Methods in Molecular Biology vol. 741, pp. 39-54 (2011)). Well-differentiated cells (>30 days at air/liquid interface) on Snapwell filters (Corning Costar, cat. no. 3801) were mounted in Ussing chambers (Physiologic Instruments, Inc., San Diego, CA). […] HEPES buffered physiological saline (composition (in mM): 137 NaCl, 4 KCl, 1 MgCl2, 1.8 CaCl2), 10 HEPES Na) was used in both apical and basolateral chambers. Chambers were bubbled with air to promote mixing and the voltage was clamped to zero. Amiloride (30 uM), forskolin (10 uM), test compound (4 increasing concentrations), and CFTRinh-172 (20 uM) were added sequentially with 20-25 minutes between additions. Short-circuit currents were acquired and analyzed using LabScribe2. Test compound responses were scaled relative to responses for DMSO (0%) and the maximal response of a positive control potentiator (100%).

In assay [2] the target is T2, recombinant F508del V470 CFTR in Fischer rat thyroid (FRT) cells (Homo sapiens, UniProt P13569, DEL508-508).
T2 construct: expressed in transfected cells
T2 sequence (P13569 with tags, fused parts or gaps DEL508-508): as above
In words: FRT ion flux assay of F508del CFTR potentiation. It counts as cell-based. Particulars: FRT cells expressing F508del V470 CFTR, forskolin 20 uM, 27° C. pre-incubation. The method, then: FRT Ion Flux Assay of F508del CFTR Potentiation
Fischer rat thyroid (FRT) cell lines stably expressing recombinant F508del V470 CFTR and halide-sensitive yellow fluorescent protein (Pedemonte et al., J. Clin. Invest. 115(9) 2564-71 (2005)) were seeded at 25,000 cells/well in 50 uL/well of culture medium into black-walled, clear bottom tissue-culture-treated 384-well plates (Corning, cat. no. 3712). After one day, the cells were pre-incubated at 27° C./5% CO2 for 16-24 hours. The cells were then washed with dPBS and treated with forskolin (20 uM) and test compound for 30 mi by addition of 20 uL of compound dilution buffer (dPBS containing forskolin and test compound). Plates were loaded into FLIPR384 fluorescence imaging plate reader (Molecular Devices). After an initial fluorescence reading, iodide buffer (25 uL) (composition (in mM): 137 NaI, 1.5 K2PO4, 8.1 NaH2PO4, 2.7 KCl, 0.5 MgCl2, 1 CaCl2) was added and a second fluorescence reading was made after approximately 21 seconds. Data treatment involved division of the second fluorescence reading by the initial fluorescence reading, then scaling of the resulting normalized endpoint fluorescence with respect to the responses for DMSO (0%) and a positive control potentiator (100%).

Molecules are shown by their SMILES. pEC50: −log10 of the molar value.

Usually pEC50 stands for the EC50 on a negative log10 scale, so that one unit is a factor of ten.

For the compound `CCC(c1cn(-c2ccc(F)cc2F)nn1)n1c(C#N)c(-c2cnc(C(F)(F)F)nc2)c2c(N)ncnc21` (single isomer, unassigned) [Example 17, 4-Amino-7-{1-[1-(2,4-difluorophenyl)-1H-1,2,3-triazol-4-yl]propyl}-5-[2-(trifluoromethyl)pyrimidin-5-yl]-7H-pyrrolo[2,3-d] pyrimidin-6-carbonitrile], the negative logarithm of the EC50 (pEC50) in assay [1] was 7.31; in assay [2], 7.34.

For `COCC(c1cn(-c2ccccc2F)nn1)n1cc(-c2cccnc2OC)c2c(N)ncnc21` (centres unmarked) [Example 314, 7-{1-[1-(2-Fluorophenyl)-1H-1,2,3-triazol-4-yl]-2-methoxyethyl}-5-(2-methoxypyridin-3-yl)-7H-pyrrolo[2,3-d]pyrimidin-4-amine], the figures for the negative logarithm of the EC50 (pEC50) in assay [1] and in assay [2] were 6.45 and 6.64, respectively.

For `CCC(c1cn(-c2ccccc2F)nn1)n1cc(C2CC2)c2c(N)ncnc21` (centres unmarked) [Example 236, 5-cyclopropyl-7-{1-[1-(2-fluorophenyl)-1H-1,2,3-triazol-4-yl]propyl}-7H-pyrrolo[2,3-d]pyrimidin-4-amine], the pEC50 in assay [1] was 7.41; in assay [2] it was 7.25.

For the compound `CC(C)n1cc(Cn2c(C#N)c(-c3ccc(Cl)cc3)c3c(N)ncnc32)cn1` [Example 25, 4-Amino-5-(4-chlorophenyl)-7-{[1-(propan-2-yl)-1H-pyrazol-4-yl]methyl}-7H-pyrrolo[2,3-d]pyrimidine-6-carbonitrile], the results for the negative logarithm of the EC50 (pEC50) in assay [1] and in assay [2] were 7.39 and 7.02, respectively.

As for `COc1ncccc1-c1cn(Cc2cn(-c3ccccc3F)nn2)c2ncnc(N)c12` [Example 210, 7-{[1-(2-Fluorophenyl)-1H-1,2,3-triazol-4-yl]methyl}-5-(2-methoxy-pyridin-3-yl)-7H-pyrrolo[2,3-d]pyrimidin-4-amine], the pEC50 is 6.80 in assay [1] and 6.91 in assay [2].

In the case of `CCC(c1cn(-c2ccccc2)nn1)n1cc(-c2cncnc2OC)c2c(N)ncnc21` (single isomer, unassigned; enantiomer 1) [Example 127, (−) 5-(4-Methoxypyrimidin-5-yl)-7-[1-(1-phenyl-1H-1,2,3-triazol-4-yl)propyl]-7H-pyrrolo[2,3-d]pyrimidin-4-amine, enantiomer 1], the results for the pEC50 in assay [1] and in assay [2] were 6.35 and 6.39, respectively.

Consider `CC(c1cn(-c2ccccc2F)nn1)n1cc(-c2ccc(OC3CC3)nc2)c2c(N)ncnc21` (single isomer, unassigned; enantiomer 1) [Example 119, (−) 5-[6-(Cyclopropyloxy)pyridin-3-yl]-7-{1-[1-(2-fluorophenyl)-1H-1,2,3-triazol-4-yl]ethyl}-7H-pyrrolo[2,3-d]pyrimidin-4-amine, enantiomer 1], for which the pEC50 was 6.73 in assay [1] and 6.17 in assay [2].

`CCC(c1cn(-c2ccc(F)cc2F)nn1)n1cc(-c2cc(F)cnc2OC)c2c(N)ncnc21` (single isomer, unassigned; enantiomer 1) [Example 163, 7-{1-[1-(2,4-Difluorophenyl)-1H-1,2,3-triazol-4-yl]propyl}-5-(5-fluoro-2-methoxypyridin-3-yl)-7H-pyrrolo[2,3-d]pyrimidin-4-amine, enantiomer 1]: the values for the negative-log EC50 (pEC50) in assay [1] and in assay [2] were 7.01 and 6.53, respectively.

In the case of `N#Cc1c(-c2cnc(C(F)(F)F)nc2)c2c(N)ncnc2n1Cc1cn(-c2ccccc2F)nn1` [Example 37], the pEC50 was 7.79 in assay [1] and 7.87 in assay [2].

For the compound `CC(c1cc(-c2ccccc2F)no1)n1cc(-c2ccc(N(C)C)cc2)c2c(N)ncnc21` (centres unmarked) [Example 105, 5-[4-(Dimethylamino)phenyl]-7-{1-[3-(2-fluorophenyl)-1,2-oxazol-5-yl]ethyl}-7H-pyrrolo[2,3-d]pyrimidin-4-amine], the pEC50 in assay [1] was 7.12; in assay [2] it was 6.43.

Consider `CCC(c1cnn(-c2ccccc2F)c1)n1cc(-c2cnc(C(F)(F)F)nc2)c2c(N)ncnc21` (single isomer, unassigned; enantiomer 2) [Example 176, 7-{(1-[1-(2-Fluorophenyl)-1H-pyrazol-4-yl]propyl}-5-[2-(trifluoromethyl)pyrimidin-5-yl]-7H-pyrrolo[2,3-d]pyrimidin-4-amine, enantiomer 2], for which the pEC50 in assay [1] is 6.97; in assay [2] it was 6.69.

Regarding `Nc1ncnc2c1c(-c1ccc(Cl)cc1)cn2Cc1cc(C2CC2)no1` [Example 280, 5-(4-Chlorophenyl)-7-[(3-cyclopropyl-1,2-oxazol-5-yl)methyl]-7H-pyrrolo[2,3-d]pyrimidin-4-amine], the negative-log EC50 (pEC50) is 6.90 in assay [1] and 5.57 in assay [2].

For `CCC(c1cn(-c2ccccc2)nn1)n1cc(-c2ccc(OC)nc2)c2c(N)ncnc21` (single isomer, unassigned; enantiomer 2) [Example 126, 5-(6-Methoxypyridin-3-yl)-7-[1-(1-phenyl-1H-1,2,3-triazol-4-yl)propyl]-7H-pyrrolo[2,3-d]pyrimidin-4-amine, enantiomer 2], the negative logarithm of the EC50 (pEC50) was 7.92 in assay [1] and 7.67 in assay [2].

As for `CC(c1cn(-c2ccc(F)cc2F)nn1)n1c(C#N)c(-c2ccc(OC3CC3)nc2)c2c(N)ncnc21` (single isomer, unassigned; enantiomer 2) [Example 321, 4-Amino-5-[6-(cyclopropyloxy)pyridin-3-yl]-7-{1-[1-(2,4-difluorophenyl)-1H-1,2,3-triazol-4-yl]ethyl}-7H-pyrrolo[2,3-d]pyrimidine-6-carbonitrile, enantiomer 2], the figures for the negative logarithm of the EC50 (pEC50) in assay [1] and in assay [2] were 6.85 and 6.44, respectively.

Regarding `CC(c1cnn(-c2ccccc2F)c1)n1c(C#N)c(-c2cnc(C(F)F)nc2)c2c(N)ncnc21` (single isomer, unassigned) [Example 1, 4-Amino-5-[2-(difluoromethyl)pyrimidin-5-yl]-7-{1-[1-(2-fluorophenyl)-1H-pyrazol-4-yl]ethyl}-7H-pyrrolo[2,3-d]pyrimidine-6-carbonitrile], the pEC50 in assay [1] was 8.78; in assay [2] it was 9.26.

Turning to `CC(c1cnn(-c2ccc(F)cc2F)c1)n1c(C#N)c(-c2cnc(C(F)(F)F)nc2)c2c(N)ncnc21` (single isomer, unassigned) [Example 7, 4-Amino-7-{1-[1-(2,4-difluorophenyl)-1H-pyrazol-4-yl]ethyl}-5-[2-(trifluoromethyl)pyrimidin-5-yl]-7H-pyrrolo[2,3-d] pyrimidine-6-carbonitrile], the negative-log EC50 (pEC50) in assay [1] is 8.74; in assay [2], 8.56.

For the compound `CCC(c1cn(-c2ccccc2)nn1)n1cc(-c2cnc(C(F)(F)F)nc2)c2c(N)ncnc21` (single isomer, unassigned; enantiomer 1) [Example 129, 7-[1-(1-Phenyl-1H-1,2,3-triazol-4-yl)propyl]-5-[2-(trifluoromethyl)pyrimidin-5-yl]-7H-pyrrolo[2,3-d]pyrimidin-4-amine, enantiomer 1], the negative-log EC50 (pEC50) was 7.97 in assay [1] and 8.07 in assay [2].

Turning to `CC(c1cn(-c2ccc(F)cc2F)nn1)n1c(C#N)c(-c2ccc(OC3CC3)nc2)c2c(N)ncnc21` (single isomer, unassigned; enantiomer 1) [Example 320, 4-Amino-5-[6-(cyclopropyloxy)pyridin-3-yl]-7-{1-[1-(2,4-difluorophenyl)-1H-1,2,3-triazol-4-yl]ethyl}-7H-pyrrolo[2,3-d]pyrimidine-6-carbonitrile, enantiomer 1], the negative-log EC50 (pEC50) was 7.34 in assay [1] and 6.92 in assay [2].

Regarding `CC(c1cn(-c2ccccc2F)nn1)n1cc(-c2cnc(C(F)(F)F)nc2)c2c(N)ncnc21` (centres unmarked) [Example 216, 7-{1-[1-(2-Fluorophenyl)-1H-1,2,3-triazol-4-yl]ethyl}-5-[2-(trifluoromethyl)pyrimidin-5-yl]-7H-pyrrolo[2,3-d]pyrimidin-4-amine], the pEC50 in assay [1] was 7.23; in assay [2], 7.60.
